Laboratory results from patent publication US6525022B1, “Receptor specific atrial natriuretic peptides” (Genentech, Inc., priority 1993, dated 2003).
Where a SMILES comes first, the peptide text is derived from it. Bridges are numbered along the chain shown (N, C = ends).

Experiments:
[1] = molecular target: T1, membrane preparation from rhesus monkey lung (Macaca mulatta, UniProt F7HE88); test: cGMP stimulation of rhesus lung membranes; type: biochemical; settings: FIG. 13, rhesus monkey lung membranes
T1 construct: from tissue; host or cells: rhesus monkey lung membranes
T1 sequence (F7HE88 33-1061): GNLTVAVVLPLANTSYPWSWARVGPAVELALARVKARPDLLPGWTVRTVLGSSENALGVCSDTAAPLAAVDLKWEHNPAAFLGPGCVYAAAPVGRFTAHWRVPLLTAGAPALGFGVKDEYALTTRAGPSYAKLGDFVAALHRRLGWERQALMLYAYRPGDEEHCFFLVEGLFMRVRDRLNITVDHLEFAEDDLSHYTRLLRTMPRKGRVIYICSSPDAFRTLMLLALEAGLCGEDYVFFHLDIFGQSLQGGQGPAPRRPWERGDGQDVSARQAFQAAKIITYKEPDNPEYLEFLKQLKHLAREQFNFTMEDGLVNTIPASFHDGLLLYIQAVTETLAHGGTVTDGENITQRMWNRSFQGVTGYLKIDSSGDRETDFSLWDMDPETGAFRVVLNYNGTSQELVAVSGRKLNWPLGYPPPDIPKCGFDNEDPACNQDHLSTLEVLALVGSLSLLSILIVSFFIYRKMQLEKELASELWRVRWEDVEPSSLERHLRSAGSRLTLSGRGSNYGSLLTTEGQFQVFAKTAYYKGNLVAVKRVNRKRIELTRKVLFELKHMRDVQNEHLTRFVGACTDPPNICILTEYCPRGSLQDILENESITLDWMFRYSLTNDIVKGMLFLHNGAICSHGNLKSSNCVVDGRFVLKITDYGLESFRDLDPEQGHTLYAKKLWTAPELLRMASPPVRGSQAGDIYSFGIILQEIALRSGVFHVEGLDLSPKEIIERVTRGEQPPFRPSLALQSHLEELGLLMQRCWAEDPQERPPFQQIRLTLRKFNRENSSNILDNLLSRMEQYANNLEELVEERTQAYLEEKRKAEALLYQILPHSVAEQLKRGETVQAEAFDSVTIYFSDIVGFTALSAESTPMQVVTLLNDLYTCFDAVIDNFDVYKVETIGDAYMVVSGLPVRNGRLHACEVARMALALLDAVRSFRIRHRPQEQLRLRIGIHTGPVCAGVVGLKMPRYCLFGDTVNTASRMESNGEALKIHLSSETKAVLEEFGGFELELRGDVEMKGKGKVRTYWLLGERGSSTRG
Protocol: For preparation of membranes from Rhesus monkey tissues, frozen tissue was placed between parafilm and broken up into pieces by hitting with a hammer. Tissue was transferred to a 125 mL polypropylene tube containing 100 mL of ice-cold buffer #1 (50 mM HEPES, pH 7.4, 1 mM EDTA, 250 mM sucrose, 0.7 mg/mL pepstatin A, 0.5 mg/mL leupeptin, 1 mM PMSF, and 1 mM phosphoramidon). Tissue was homogenized with a Brinkman polytron on a setting of 5 two times for 10 sec. The sample was placed on ice between homogenizations. 11 mL of 30 mM MgCl2/100 mM NaCl containing 1 mM phosphoramidon was added to the homogenate. The homogenate was spun at 400×g for 10 min at 4° C. in a HB-4 rotor. The supernatant was transferred to another tube and spun as above. The supernatant was passed though four layers of sterile gauze then centrifuged at 30,000×g for 20 min at 4° C. in a 60 Ti rotor. The pellet was resuspended in 3-5 mL of buffer #2 (50 mM HEPES, pH 7.4, 0.1 mM EDTA, 5 mM MgCl2, 100 mM NaCl, 0.7 mg/mL pepstatin A, 0.5 mg/mL leupeptin, 1 mM PMSF, and 1 mM phosphoramidon), using a 7 mL Wheaton Dounce with a B pestle. Aliquots were stored at −80° C. […]
Data analysis. The competition binding curves and cGMP production dose responses were analyzed by the four-parameter logistic equation with the KaleidaGraph™ program (Synergy Software, PA) to obtain estimates of the IC50 or EC50 values. […]

rhesus monkeys = type: in vivo; settings: rhesus monkey
Protocol: Administration of Natriuretic Peptides to Rhesus Monkeys. […] A second iv catheter was inserted for fluid administration and blood withdrawal. A urinary catheter was inserted and urine flow monitored at 10 minute intervals. Urine output and blood withdrawal volumes were replaced by intravenous administration of equal volumes of equal parts of one-half normal saline and 5% (W/V) dextrose in water (D5W). […] Every ten minutes, urine, if present, was collected, the volume recorded and analyzed for sodium and potassium content.

Row | Infusion rate at which dosing was discontinued because of hypotension (rhesus monkeys; in vivo) | SMILES | Potency in stimulation of cGMP production compared with rat ANP [1] | Urine flow, potassium excretion and sodium excretion (rhesus monkeys; 7.5 ng/kg/min 60-minute infusion) | Potassium excretion (rhesus monkeys; 25 ng/kg/min infusion) | Sodium excretion above baseline (rhesus monkeys; 25 ng/kg/min infusion) | Urine flow above baseline (rhesus monkeys; 25 ng/kg/min infusion) | Systolic arterial pressure (rhesus monkeys; escalating iv infusion from 7.5 ng/kg/min)
1 |  | CC[C@H](C)[C@@H]1NC(=O)[C@H](CCCNC(=N)N)NC(=O)[C@H](CC(=O)O)NC(=O)[C@H]([C@@H](C)CC)NC(=O)[C@H](CO)NC(=O)CNC(=O)[C@H]([C@@H](C)O)NC(=O)[C@H](Cc2ccccc2)NC(=O)[C@@H](NC(=O)[C@H](CO)NC(=O)[C@H](CO)NC(=O)[C@H](CCCNC(=N)N)NC(=O)[C@H](CCCNC(=N)N)NC(=O)[C@H](CC(C)C)NC(=O)[C@H](CO)NC(=O)[C@H](CCCNC(=N)N)NC(=O)[C@@H]2CCCN2C(=O)[C@H](C)NC(=O)[C@@H](N)[C@@H](C)O)CSSC[C@@H](C(=O)N[C@@H](CC(N)=O)C(=O)N[C@@H](CO)C(=O)N[C@@H](Cc2ccccc2)C(=O)N[C@@H](CCCNC(=N)N)C(=O)N[C@@H](Cc2ccc(O)cc2)C(=O)O)NC(=O)CNC(=O)[C@H](CC(C)C)NC(=O)CNC(=O)[C@H](CO)NC(=O)[C@H](CCC(N)=O)NC(=O)[C@H](C)NC(=O)[C@H](CCCNC(=N)N)NC1=O [ANF 76] (H-TAPRSLRRSSCFTGSIDRIRAQSGLGCNSFRY-OH; disulfide 11-27; C-terminus assumed) | more potent than rat ANP |  |  |  |  | 
2 | 25 ng/kg/min | CC[C@H](C)[C@@H]1NC(=O)[C@H](CCCNC(=N)N)NC(=O)[C@H](CC(=O)O)NC(=O)[C@H]([C@@H](C)CC)NC(=O)[C@H](CO)NC(=O)CNC(=O)[C@H]([C@@H](C)O)NC(=O)[C@H](Cc2ccccc2)NC[C@@H](NC(=O)[C@H](CO)NC(=O)[C@H](CO)NC(=O)[C@H](CCCNC(=N)N)NC(=O)[C@H](CCCNC(=N)N)NC(=O)[C@H](CC(C)C)NC(=O)[C@@H](N)CO)CSSC[C@@H](C(=O)N[C@@H](CC(N)=O)C(=O)N[C@@H](CO)C(=O)N[C@@H](Cc2ccccc2)C(=O)N[C@@H](CCCNC(=N)N)C(=O)N[C@@H](Cc2ccc(O)cc2)C(=O)O)NC(=O)CNC(=O)[C@H](CC(C)C)NC(=O)CNC(=O)[C@H](CO)NC(=O)[C@H](CCC(N)=O)NC(=O)[C@H](C)NC(=O)[C@H](CCCNC(=N)N)NC1=O [ANF 84] | more potent than rat ANP | began to rise in parallel at the beginning of the 7.5 ng/kg/min infusion, but returned to baseline by 60 minutes | remained at slightly-elevated levels | ~100 fold | approximately 10 fold | began to gradually decline
